# Assay results from patent US11746116B2, “Antibiotic resistance breakers” (KING'S COLLEGE LONDON, priority 2017, dated 2023).
# How the values were obtained:
# Assay in all cases: MIC, microdilution broth method
# KP13368 = assay type: cell-based; settings: for MIC, KP13368: ESKAPE panel, Gram-negative
# M6 = assay type: cell-based; settings: for MIC, M6: ESKAPE panel, Gram-negative, in µg/mL
# AYE = assay type: cell-based, Acinetobacter baumannii; settings: for MIC, AYE: ESKAPE panel, Gram-negative, in µg/mL
# Ab17978 = assay type: cell-based; settings: for MIC, Ab17978: ESKAPE panel, Gram-negative, in µg/mL
# PA01 = assay type: cell-based, Pseudomonas aeruginosa; settings: for MIC, PA01: ESKAPE panel, Gram-negative, in µg/mL
# PA13437 = assay type: cell-based; settings: ESKAPE panel, Gram-negative
# EC12923 = assay type: cell-based; settings: for MIC, EC12923: ESKAPE panel, Gram-negative, in µg/mL
# MSSA9144 = assay type: cell-based, Staphylococcus aureus; settings: for MIC, MSSA9144: ESKAPE panel, Gram-positive, in µg/mL
# EMRSA15 = assay type: cell-based, Staphylococcus aureus; settings: for MIC, EMRSA15: in µg/mL
# EMRSA16 = assay type: cell-based, Staphylococcus aureus; settings: for MIC, EMRSA16: in µg/mL
# VSE775 = assay type: cell-based, Enterococcus faecalis; design: MIC, VSE775: unit not given beside the values; settings: for MIC, VSE775: ESKAPE panel, Gram-positive
# VRE12201 = assay type: cell-based, Enterococcus faecalis; settings: for MIC, VRE12201: ESKAPE panel, Gram-positive, in µg/mL
# VRE12204 = assay type: cell-based, Enterococcus faecium; settings: ESKAPE panel, Gram-positive; in µg/mL
SMILES,"MIC, KP13368 (KP13368)","MIC, M6 (M6)","MIC, AYE (AYE)","MIC, Ab17978 (Ab17978)","MIC, PA01 (PA01)","MIC, PA13437 (PA13437)","MIC, EC12923 (EC12923)","MIC, MSSA9144 (MSSA9144)","MIC, EMRSA15 (EMRSA15; ESKAPE panel, Gram-positive)","MIC, EMRSA16 (EMRSA16; ESKAPE panel, Gram-positive)","MIC, VSE775 (VSE775)","MIC, VRE12201 (VRE12201)","MIC, VRE12204 (VRE12204)",further results
"C[C@H]1COc2c(N3CC[C@@H](Nc4ncc(F)cn4)C3)c(F)cc3c(=O)c(C(=O)O)cn1c23 [KSN-L34, (S)-9-fluoro-10-((R)-3-((5-fluoropyrimidin-2-yl)amino)pyrrolidin-1-yl)-3-methyl-7-oxo-2,3-dihydro-7H-[1,4]oxazino[2,3,4-ij]quinoline-6-carboxylic acid]",32 µg/mL,2,4,≤0.125,4,> 32 µg/mL,0.125,≤0.125,0.5,1,≤0.125,≤0.125,1,"MIC (KP13368; Klebsiella pneumoniae (KP13368), Gram-Negative, read-out: MIC): 32 µg/mL; MIC (M6; Klebsiella pneumoniae (M6), Gram-Negative, read-out: MIC): 2 µg/mL; MIC (AYE; Acinetobacter baumannii (AYE), Gram-Negative, read-out: MIC): 4 µg/mL; MIC (Ab17978; Acinetobacter baumannii (AB17978), Gram-Negative, read-out: MIC): ≤ 0.125 µg/mL; MIC (PA01; Pseudomonas aeruginosa (PA01), Gram-Negative, read-out: MIC): 4 µg/mL; MIC (EC12923; Escherichia coli (EC12923), Gram-Negative, read-out: MIC): 0.125 µg/mL; MIC (MSSA9144; Staphylococcus aureus (MSSA9144), Gram-Positive, read-out: MIC): ≤ 0.125 µg/mL; MIC, EMRSA15 (EMRSA15; EMRSA15 (Table 16, role of the terminal pyrimidine ring)): 0.5; MIC (EMRSA15; Staphylococcus aureus, Staphylococcus aureus (EMRSA15), Gram-Positive (Table 14), read-out: MIC): 0.5 µg/mL; MIC, EMRSA16 (EMRSA16; EMRSA16 (Table 16, role of the terminal pyrimidine ring)): 1; MIC (EMRSA16; Staphylococcus aureus (EMRSA16), Gram-Positive (Table 14), read-out: MIC): 1 µg/mL; MIC (VSE775; Enterococcus faecalis, Enterococcus (VRE775), Gram-Positive, read-out: MIC): ≤ 0.125 µg/mL; MIC (VRE12201; Enterococcus faecalis, Enterococcus (VRE12201), Gram-Positive, read-out: MIC): ≤ 0.125 µg/mL"
"C[C@H]1COc2c(N3CC[C@@H](N(C)C4CC4)C3)c(F)cc3c(=O)c(C(=O)O)cn1c23 [KSN-L36, (S)-10-((R)-3-(cyclopropyl(methyl)amino)pyrrolidin-1-yl)-9-fluoro-3-methyl-7-oxo-2,3-dihydro-7H-[1,4]oxazino[2,3,4-ij]quinoline-6-carboxylic acid]",32 µg/mL,2-4,64,0.5-1,16,> 64 µg/mL,0.5-1,0.25-0.5,32,32,4,2,8,–
C[C@H]1COc2c(N3CC[C@H](Nc4ncccn4)C3)c(F)cc3c(=O)c(C(=O)O)cn1c23 [KSN-L19],> 32 µg/mL,4,>32,4,>32,> 32 µg/mL,4,0.25,8,8,2,1,4,–
"C[C@H]1COc2c(N3CC[C@H](Nc4cc(NC5CC5)ncn4)C3)c(F)cc3c(=O)c(C(=O)O)cn1c23 [KSN-L21, (S)-10-((S)-3-((6-(cyclopropylamino)pyrimidin-4-yl)amino)pyrrolidin-1-yl)-9-fluoro-3-methyl-7-oxo-2,3-dihydro-7H-[1,4]oxazino[2,3,4-ij]quinoline-6-carboxylic acid]",> 32 µg/mL,16,>32,2,>32,> 32 µg/mL,0.5,0.5,32,>32,4,1,16,–
